The values that follow come from US9682925B2, “Cyclopropaneamine compound” (TAKEDA PHARMACEUTICAL COMPANY LIMITED, priority 2011, dated 2017).

Each structure is given as a SMILES string.

Common to all, as to type: biochemical
One assay has as its target T1, MAO-B (Homo sapiens, UniProt P27338).
T1 construct: purchased Sigma-Aldrich Co. LLC
T1 sequence (P27338 1-520): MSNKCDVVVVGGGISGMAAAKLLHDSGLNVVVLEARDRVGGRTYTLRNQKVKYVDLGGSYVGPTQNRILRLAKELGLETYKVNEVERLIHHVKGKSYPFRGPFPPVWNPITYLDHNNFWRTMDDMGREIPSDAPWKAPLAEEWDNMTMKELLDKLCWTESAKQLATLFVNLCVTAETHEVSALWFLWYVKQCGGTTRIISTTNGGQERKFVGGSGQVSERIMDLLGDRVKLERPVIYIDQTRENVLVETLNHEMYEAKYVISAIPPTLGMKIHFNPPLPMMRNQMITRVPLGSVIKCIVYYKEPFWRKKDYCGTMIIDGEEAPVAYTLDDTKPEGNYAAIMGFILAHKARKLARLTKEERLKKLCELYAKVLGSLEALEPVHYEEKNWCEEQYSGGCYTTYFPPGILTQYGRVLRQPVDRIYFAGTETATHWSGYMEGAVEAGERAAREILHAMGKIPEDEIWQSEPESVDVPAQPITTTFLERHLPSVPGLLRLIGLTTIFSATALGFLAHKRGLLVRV
The assay can be described thus: Measurement of MAO-B inhibitory activity (MAO-Glo Assay). The procedure:
(2) Measurement of MAO-B Inhibitory Activity
The MAO-B inhibitory activity evaluation described below followed the protocol of MAO-Glo (registered trademark) Assay of Promega KK.
(§1) A test compound dissolved in 4% DMSO was added by 12.5 μL to 25 μL reaction solution (100 mM HEPES (pH 7.5), 5% glycerol, 10% DMSO) containing 400 ng of MAO-B enzyme (Sigma-Aldrich Co. LLC.), and the mixture was reacted at room temperature for 10 min. MAO substrate (Promega KK) (16 μM) was added by 12.5 μL to start the reaction. After reaction at room temperature for 60 min, Luciferine detection reagent (Promega KK) (50 μL) was added to terminate the reaction. After reaction at room temperature for 20 min with stirring, the luminescence was measured by Envision (PerkinElmer). The MAO-B inhibitory rate (%) of the test compound was calculated by the following formula. inhibitory rate (%)=(1−(test compound count−blank)÷(control−blank)×100
The count of the MAO-B enzyme reaction mixture under compound non-addition conditions is indicated as control, and the count under compound non-addition and MAO-B enzyme non-addition conditions is indicated as blank.

Another assay has as its target T2, human LSD1(171-852) (Homo sapiens, UniProt O60341).
T2 construct: to give hLSD1(171-852) purified product; made in house; host or cells: Escherichia coli C43(DE3) pLysS
In words: Measurement of LSD1 inhibitory activity (time-resolved fluorescence, biotin-histone H3 mono methylated K4 peptide). Particulars: read-out: LSD1 IC50 value. The procedure: When the turbidity reached 600 Klett units, the culture temperature was changed to 16° C., IPTG having a final concentration of 0.5 mM was added to induce expression, and the cells were cultured further for 21 hr. The culture medium was centrifuged at 9,000 g for 10 min, and Escherichia coli pellets were recovered.
Escherichia coli pellets in 9 L of the culture medium were suspended in 1340 mL of an extraction buffer (PBS, 5% (V/V) Glycerol), and 6700 units of Benzonase (Merck) were added. Using Branson ultrasonic disintegrator, the suspension was disrupted by ultrasonication for 3 min, and centrifuged at 33,000 g for 20 min, and the supernatant was recovered.
(5) Measurement of LSD1 Inhibitory Activity
After reaction at room temperature for 20 min, 1 mM 2-PCPA solution (5 μL) was added to terminate the reaction. A detection solution (800 mM potassium fluoride, 0.1% BSA) containing europium-labeled antihistone H3 antibody (Wako Pure Chemical Industries, Ltd.) and Streptavidin-XL665 (Cisbio) was further added by 5 μL, and the mixture was left standing for 60 min. A time-resolved fluorescence (excitation 320 nm, emission 615 nm, 665 nm) was measured by Envision (PerkinElmer). The LSD1 inhibitory rate (%) of the test compound was calculated by the following formula. inhibitory rate (%)=(1−(test compound count−blank)÷(control−blank)×100
The count of the LSD1 enzyme reaction mixture under compound non-addition conditions is indicated as control, and the count under compound non-addition and LSD1 enzyme non-addition conditions is indicated as blank.

For a further assay, the target named is T3, MAO-A (Homo sapiens, UniProt P21397).
T3 construct: purchased Sigma-Aldrich Co. LLC
T3 sequence (P21397 1-527): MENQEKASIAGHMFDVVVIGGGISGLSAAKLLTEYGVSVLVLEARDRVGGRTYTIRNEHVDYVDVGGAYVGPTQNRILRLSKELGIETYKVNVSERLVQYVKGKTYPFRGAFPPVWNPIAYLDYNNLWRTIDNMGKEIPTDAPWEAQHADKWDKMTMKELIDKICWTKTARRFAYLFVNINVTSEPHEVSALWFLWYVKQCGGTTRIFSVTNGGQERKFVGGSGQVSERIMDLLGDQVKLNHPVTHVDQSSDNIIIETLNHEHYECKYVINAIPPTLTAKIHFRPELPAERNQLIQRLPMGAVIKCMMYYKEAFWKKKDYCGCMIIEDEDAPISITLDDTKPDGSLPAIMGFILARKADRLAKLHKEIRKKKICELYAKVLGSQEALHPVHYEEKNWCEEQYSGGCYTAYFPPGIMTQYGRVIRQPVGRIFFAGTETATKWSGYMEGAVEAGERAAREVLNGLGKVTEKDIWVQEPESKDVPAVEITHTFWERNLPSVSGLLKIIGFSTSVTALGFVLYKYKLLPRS
In words: Measurement of MAO-A inhibitory activity (MAO-Glo Assay). The procedure:
(1) Measurement of MAO-A Inhibitory Activity
The MAO-A inhibitory activity evaluation described below followed the protocol of MAO-Glo (registered trademark) Assay of Promega KK.
as §1, with “glycerol)” for “glycerol, 10% DMSO)”, “MAO-A” for “MAO-B”, “(160” for “(16”
The count of the MAO-A enzyme reaction mixture under compound non-addition conditions is indicated as control, and the count under compound non-addition and MAO-A enzyme non-addition conditions is indicated as blank.

By IC50 is commonly meant the concentration at which inhibition is half-maximal. Regarding `O=C(Nc1cccc(C(=O)Nc2ccc([C@@H]3C[C@H]3NCc3ccccc3)cc2)c1)c1ccccc1` (relative stereo) [Example 31, N-{4-[trans-2-(benzylamino)cyclopropyl]phenyl}-3-[(phenylcarbonyl)amino]benzamide], the values for the IC50 at MAO-B, at human LSD1(171-852) and on MAO-A were more than 10 µM, less than 0.1 µM and more than 10 µM, respectively.
Take `O=C(Nc1ccc([C@@H]2C[C@H]2NCc2ccccc2)cc1)c1cccc(N2CCCCC2)c1` (relative stereo) [Example 32, N-{4-[trans-2-(benzylamino)cyclopropyl]phenyl}-3-piperidin-1-ylbenzamide]: the IC50 on MAO-B was more than 10 µM; at human LSD1(171-852), less than 0.1 µM; at MAO-A, more than 10 µM.
In the case of `O=C(Nc1ccc([C@@H]2C[C@H]2NCc2ccccc2)cc1)c1cccc(N2CCCCC2=O)c1` (relative stereo) [Example 33, N-{4-[trans-2-(benzylamino)cyclopropyl]phenyl}-3-(2-oxopiperidin-1-yl)benzamide], the IC50 at MAO-B was more than 10 µM; at human LSD1(171-852), less than 0.1 µM; against MAO-A, more than 10 µM.
Regarding `O=C(Nc1ccc([C@@H]2C[C@H]2NCc2ccccc2)cc1)c1cccc(CCc2ccccc2)c1` (relative stereo) [Example 34, N-{4-[trans-2-(benzylamino)cyclopropyl]phenyl}-3-(2-phenylethyl)benzamide], the IC50 at MAO-B was more than 10 µM; at human LSD1(171-852), 0.19 µM; on MAO-A, more than 10 µM.
As to `O=C(Nc1ccc([C@@H]2C[C@H]2NCc2ccccc2)cc1)c1ccc(-c2ccccc2)cc1` (relative stereo) [Example 35, N-{4-[trans-2-(benzylamino)cyclopropyl]phenyl}biphenyl-4-carboxamide], the figures for the IC50 at MAO-B, at human LSD1(171-852) and on MAO-A were more than 10 µM, 0.13 µM and 1.3 µM, respectively.
`O=C(Nc1ccc([C@@H]2C[C@H]2NCc2ccccc2)cc1)c1cccc(-c2ccccc2)c1` (relative stereo) [Example 36, N-{4-[trans-2-(benzylamino)cyclopropyl]phenyl}biphenyl-3-carboxamide]: the IC50 at MAO-B is more than 10 µM; on human LSD1(171-852) it was less than 0.1 µM; on MAO-A, 4.6 µM.
Regarding `O=C(Nc1ccc([C@@H]2C[C@H]2NCc2cccnc2)cc1)c1ccc(-c2ccccc2)cc1` (relative stereo) [Example 38, N-(4-{trans-2-[(pyridin-3-ylmethyl)amino]-cyclopropyl}-phenyl)biphenyl-4-carboxamide], the IC50 on MAO-B was more than 10 µM; on human LSD1(171-852), less than 0.1 µM; on MAO-A, 9.1 µM.
The matching figures for `O=C(Nc1ccc([C@@H]2C[C@H]2NCc2ccncc2)cc1)c1ccc(-c2ccccc2)cc1` (relative stereo) [Example 39, N-(4-{trans-2-[(pyridin-4-ylmethyl)amino]-cyclopropyl}-phenyl)biphenyl-4-carboxamide]: more than 10 µM, less than 0.1 µM and more than 10 µM.
Take `COc1cccc(CN[C@@H]2C[C@H]2c2ccc(NC(=O)c3ccc(-c4ccccc4)cc3)cc2)c1` (relative stereo) [Example 41, N-(4-{trans-2-[(3-methoxybenzyl)-amino]cyclo-propyl}phenyl)-biphenyl-4-carboxamide]: the IC50 against MAO-B amounted to 5.1 µM; at human LSD1(171-852), 0.11 µM; against MAO-A, 5.8 µM.
In the case of `O=C(Nc1ccc([C@@H]2C[C@H]2NCc2ccc3c(c2)OCO3)cc1)c1ccc(-c2ccccc2)cc1` (relative stereo) [Example 42, N-(4-{trans-2-[(1,3-benzodioxol-5-ylmethyl)amino]-cyclopropyl}-phenyl)biphenyl-4-carboxamide], the values for the IC50 on MAO-B, at human LSD1(171-852) and against MAO-A were more than 10 µM, less than 0.1 µM and more than 10 µM, respectively.
Consider `COc1ccc(CN[C@@H]2C[C@H]2c2ccc(NC(=O)c3ccc(-c4ccccc4)cc3)cc2)cc1` (relative stereo) [Example 43, N-(4-{trans-2-[(4-methoxybenzyl)-amino]cyclo-propyl}phenyl)-biphenyl-4-carboxamide], for which the results for the 50% inhibitory concentration (IC50) at MAO-B, at human LSD1(171-852) and against MAO-A were 4.7 µM, 0.11 µM and 3.3 µM, respectively.
Regarding `NCCN[C@@H]1C[C@H]1c1ccc(NC(=O)c2ccc(-c3ccccc3)cc2)cc1` (relative stereo) [Example 44, N-(4-{trans-2-[(2-aminoethyl)-amino]cyclo-propyl}phenyl)-biphenyl-4-carboxamide], the IC50 was 9.3 µM at MAO-B, less than 0.1 µM on human LSD1(171-852) and more than 10 µM against MAO-A.
Consider `O=C(Nc1ccc([C@@H]2C[C@H]2NC2CCCCCCC2)cc1)c1ccc(-c2ccccc2)cc1` (relative stereo) [Example 45, N-{4-[trans-2-(cyclooctyl-amino)cyclo-propyl]phenyl}-biphenyl-4-carboxamide], for which the values for the IC50 against MAO-B, at human LSD1(171-852) and at MAO-A were more than 10 µM, 0.29 µM and more than 10 µM, respectively.
Regarding `COc1ccc(CN[C@@H]2C[C@H]2c2ccc(NC(=O)c3ccc(-c4ccccc4)cc3)cc2)cc1OC` (relative stereo) [Example 46, N-(4-{trans-2-[(3,4-dimethoxy-benzyl)amino]cyclo-propyl}phenyl)-biphenyl-4-carboxamide], the IC50 on MAO-B was more than 10 µM; at human LSD1(171-852), less than 0.1 µM; against MAO-A, more than 10 µM.
With `CC(N[C@@H]1C[C@H]1c1ccc(NC(=O)c2ccc(-c3ccccc3)cc2)cc1)c1ccccc1` (relative stereo) [Example 47, N-(4-{trans-2-[(1-phenylethyl)amino]-cyclopropyl}phenyl)-biphenyl-4-carboxamide], the IC50 against MAO-B worked out at 1.7 µM; on human LSD1(171-852), 0.19 µM; against MAO-A, 1.8 µM.
